Assays:
BRD9 [1] = target: T1, BRD9 (Homo sapiens, UniProt Q9H8M2); assay: Isothermal titration calorimetry, BRD9; type: binding
T1 construct: made in house
T1 sequence (Q9H8M2 136-240 limits assumed): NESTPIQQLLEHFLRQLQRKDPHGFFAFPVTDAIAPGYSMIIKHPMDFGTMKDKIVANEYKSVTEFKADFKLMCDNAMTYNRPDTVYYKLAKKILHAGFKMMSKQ
Procedure: Experiments were carried out on an ITC200 titration microcalorimeter from MicroCal, LLC (GE Healthcare) equipped with a Washing module, with a cell volume of 0.2003 mL, and a 40 μL microsyringe. Experiments were carried out at 15 °C while stirring at 1000 rpm, in ITC buffer (50 mM HEPES, pH 7.5 (at 25 °C), 150 mM NaCl). The microsyringe was loaded with a solution of the protein sample (300−740 μM protein for BRD9 and BRD4(1), respectively, in ITC buffer) and was carefully inserted into the calorimetric cell which was filled with an amount of the ligand (0.2 mL, 20–25 μM in ITC buffer). The system was first allowed to equilibrate until the cell temperature reached 15 °C, and an additional delay of 60 s was applied. All titrations were conducted using an initial control injection of 0.3 μL followed by 38 identical injections of 1 μL with a duration of 2 s (per injection) and a spacing of 120 s between injections. The titration experiments were designed in such a fashion as to ensure complete saturation of the proteins before the final injection. The heat of dilution for the proteins was independent of their concentration and corresponded to the heat observed from the last injection, following saturation of ligand binding, thus facilitating the estimation of the baseline of each titration from the last injection. The collected data were corrected for protein heats of dilution (measured on separate experiments by titrating the proteins into ITC buffer) and deconvoluted using the MicroCal Origin software supplied with the instrument to yield enthalpies of binding (ΔH) and binding constants (KB) in the same fashion as that previously described in detail by Wiseman and co-workers.[66] Thermodynamic parameters were calculated using the basic equation of thermodynamics (ΔG = ΔH – TΔS = −RT ln KB, where ΔG, ΔH, and ΔS are the changes in free energy, enthalpy, and entropy of binding, respectively). In all cases a single binding site model was employed, supplied with the MicroCal Origin software package.

BRD9 [2] = target: T1, BRD9; assay: Protein stability (thermal) shift assay, BRD9; type: binding; details: compound 10 μM, protein 2 μM; average of triplicate; read-out: ΔTm Shift, BRD9
BRD4(1) = target: T2, BRD4(1) (Homo sapiens, UniProt O60885); assay: Protein stability (thermal) shift assay, BRD4(1); type: binding; details: compound 10 μM, protein 2 μM; average of triplicate; read-out: ΔTm Shift, BRD4(1)
T2 construct: made in house

BRD2(1) = target: T3, BRD2(1) (Homo sapiens, UniProt P25440); assay: Protein stability (thermal) shift assay, BRD2(1); type: binding; details: compound 10 μM, protein 2 μM; average of triplicate
T3 construct: Fragments were tested in a thermal shift assay against bromodomains of the BET subfamily; made in house
T3 sequence (P25440 74-180 limits assumed): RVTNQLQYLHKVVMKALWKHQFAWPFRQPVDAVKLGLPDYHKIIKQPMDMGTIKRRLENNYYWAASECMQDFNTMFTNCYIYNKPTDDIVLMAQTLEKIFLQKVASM

PCAF = target: T4, PCAF (Homo sapiens, UniProt Q92831); assay: Protein stability (thermal) shift assay, PCAF; type: binding; details: compound 10 μM, protein 2 μM; average of triplicate
T4 construct: representative BRDs from other structural subfamilies (family I, PCAF); made in house
T4 sequence (Q92831 723-827 limits assumed): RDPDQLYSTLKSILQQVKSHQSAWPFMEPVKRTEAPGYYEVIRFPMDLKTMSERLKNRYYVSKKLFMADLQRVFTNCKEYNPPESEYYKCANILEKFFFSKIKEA

CREBBP = target: T5, CREBBP (Homo sapiens, UniProt Q92793); assay: Protein stability (thermal) shift assay, CREBBP; type: binding; details: compound 10 μM, protein 2 μM; average of triplicate; read-out: ΔTm Shift, CREBBP
T5 construct: small thermal shits (1.0–1.3 °C) for the bromodomain of CREBBP; made in house
T5 sequence (Q92793 1085-1192 limits assumed): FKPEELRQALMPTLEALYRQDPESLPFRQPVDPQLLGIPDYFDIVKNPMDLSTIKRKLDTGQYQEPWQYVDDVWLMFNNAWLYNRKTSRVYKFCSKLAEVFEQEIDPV

BRDT(2) = target: T6, BRDT(2) (Homo sapiens, UniProt Q58F21); assay: Protein stability (thermal) shift assay, BRDT(2); type: binding; details: compound 10 μM, protein 2 μM; average of triplicate; read-out: ΔTm Shift, BRDT(2)
T6 construct: made in house

PB1(5) = target: T7, PB1(5) (Homo sapiens, UniProt Q86U86); assay: Protein stability (thermal) shift assay, PB1(5); type: binding; details: compound 10 μM, protein 2 μM; average of triplicate
T7 construct: made in house
T7 sequence (Q86U86 653-763 limits assumed): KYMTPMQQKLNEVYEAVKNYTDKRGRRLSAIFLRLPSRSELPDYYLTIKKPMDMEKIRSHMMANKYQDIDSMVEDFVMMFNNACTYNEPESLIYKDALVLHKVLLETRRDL

BRD2(2) = target: T8, BRD2(2) (Homo sapiens, UniProt P25440); assay: Protein stability (thermal) shift assay, BRD2(2); type: binding; details: compound 10 μM, protein 2 μM; average of triplicate
T8 construct: made in house
T8 sequence (P25440 344-453 limits assumed): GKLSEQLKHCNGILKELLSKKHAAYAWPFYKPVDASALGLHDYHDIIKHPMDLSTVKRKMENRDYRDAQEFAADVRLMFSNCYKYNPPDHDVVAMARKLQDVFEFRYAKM

BRD3(1) = target: T9, BRD3(1) (Homo sapiens, UniProt Q15059); assay: Protein stability (thermal) shift assay, BRD3(1); type: binding; details: compound 10 μM, protein 2 μM; average of triplicate
T9 construct: Fragments were tested in a thermal shift assay against bromodomains of the BET subfamily; made in house
T9 sequence (Q15059 34-140 limits assumed): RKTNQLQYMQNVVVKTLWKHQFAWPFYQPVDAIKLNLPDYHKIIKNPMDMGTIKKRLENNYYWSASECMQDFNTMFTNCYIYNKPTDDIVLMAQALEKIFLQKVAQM

BRD3(2) = target: T10, BRD3(2) (Homo sapiens, UniProt Q15059); assay: Protein stability (thermal) shift assay, BRD3(2); type: binding; details: compound 10 μM, protein 2 μM; average of triplicate
T10 construct: made in house
T10 sequence (Q15059 306-415 limits assumed): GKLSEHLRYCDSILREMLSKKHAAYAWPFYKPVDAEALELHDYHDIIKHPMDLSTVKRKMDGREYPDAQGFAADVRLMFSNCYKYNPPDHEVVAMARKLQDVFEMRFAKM

BRD4(2) = target: T11, BRD4(2) (Homo sapiens, UniProt O60885); assay: Protein stability (thermal) shift assay, BRD4(2); type: binding; details: compound 10 μM, protein 2 μM; average of triplicate
T11 construct: made in house

BRDT(1) = target: T12, BRDT(1) (Homo sapiens, UniProt Q58F21); assay: Protein stability (thermal) shift assay, BRDT(1); type: binding; details: compound 10 μM, protein 2 μM; average of triplicate
T12 construct: made in house

BAZ2B = target: T13, BAZ2B (Homo sapiens, UniProt Q9UIF8); assay: Protein stability (thermal) shift assay, BAZ2B; type: binding; details: compound 10 μM, protein 2 μM; average of triplicate; read-out: ΔTm Shift, BAZ2BA
T13 construct: representative BRDs from other structural subfamilies (family I, PCAF); family III, CREBBP; family IV, BRD9; family V, BAZ2B; made in house
T13 sequence (Q9UIF8 2060-2164 limits assumed): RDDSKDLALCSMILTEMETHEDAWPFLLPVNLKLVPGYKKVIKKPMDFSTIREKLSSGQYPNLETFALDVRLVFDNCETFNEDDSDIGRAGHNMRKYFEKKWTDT

[3] = test system: human bromodomains (panel); assay: Protein stability (thermal) shift assay, whole panel of human bromodomains; type: binding; details: 10 μM compound
Procedure: Thermal melting experiments were carried out using an Mx3005p real time PCR machine (Stratagene). Proteins were buffered in 10 mM HEPES, pH 7.5, 500 mM NaCl and assayed in a 96-well plate at a final concentration of 2 μM in 20 μL volume. Compounds were added at a final concentration of 10 or 100 μM. SYPRO Orange (Molecular Probes) was added as a fluorescence probe at a dilution of 1 in 1000. Excitation and emission filters for the SYPRO-Orange dye were set to 465 and 590 nm, respectively. The temperature was raised with a step of 3 °C per minute from 25 to 96 °C, and fluorescence readings were taken at each interval. The temperature dependence of the fluorescence during the protein denaturation process was approximated by the equation [drawing 1] where ΔuG is the difference in unfolding free energy between the folded and unfolded state, R is the gas constant, and yF and yU are the fluorescence intensity of the probe in the presence of completely folded and unfolded protein, respectively.[65] The baselines of the denatured and native states were approximated by a linear fit. The observed temperature shifts, ΔTm^obs, were recorded as the difference between the transition midpoints of sample and reference wells containing protein without ligand in the same plate and determined by nonlinear least-squares fit. Temperature shifts (ΔTm^obs) for three independent measurements per proteins/compound are summarized in Supporting Information Table S1.

[4] = Solubility (observation in words); type: physicochemical

ΔTm at 10 µM (BRD9 [2]) | solubility (in words) [4] | Structure (SMILES) | ΔTm at 10 µM (BRD4(1)) | ΔTm at 10 µM (BRD2(1)) | ΔTm at 10 µM (PCAF) | ΔTm at 10 µM (CREBBP) | ΔTm at 10 µM (BRDT(2)) | ΔTm at 10 µM (PB1(5)) | ΔTm at 10 µM (BRD2(2)) | ΔTm at 10 µM (BRD3(1)) | ΔTm at 10 µM (BRD3(2)) | ΔTm at 10 µM (BRD4(2)) | ΔTm at 10 µM (BRDT(1)) | ΔTm at 10 µM (BAZ2B) | binding to the bromodomain panel in the ΔTm assay (in words) [3] | further results
 | low solubility | COc1ccc(Br)cc1-c1ncnc2[nH]c(C)nc12 [Compound 9a, 6-(5-Bromo-2-methoxyphenyl)-8-methyl-9H-purine] |  |  |  |  |  |  |  |  |  |  |  |  |  | 
0.158 °C | low solubility | Nc1nc(-c2cccc3c2Sc2ccccc2S3)c2nc[nH]c2n1 [Compound 10, 2-Amino-6-thianthrenyl-9H-purine] |  |  |  |  |  |  |  |  |  |  |  |  |  | 
-0.2 °C |  | COc1ccc(Cl)cc1-c1nc(O)nc2[nH]cnc12 [Compound 8e, 6-(5-Chloro-2-methoxyphenyl)-2-hydroxy-9H-purine] | 2.3 °C | 2.1 °C | 2 °C | 1 °C | 1.8 °C | 1.7 °C | 1.2 °C | 1.9 °C | 1.3 °C | 1.3 °C | 1.5 °C | 1.2 °C | promiscuously bound to most bromodomains | Kd (BRD9 [1]; ITC, 50 mM HEPES pH 7.5, 150 mM NaCl, 15 °C, reverse titration, triplicate, read-out: KD): 7.58 ± 0.365 µM; TΔS (BRD9 [1]; ITC, 15 °C): 1.40 kcal/mol; ΔG (BRD9 [1]; ITC, 15 °C): –6.75 kcal/mol; N (stoichiometry) (BRD9 [1]; ITC, 15 °C, reverse titration): 1.05 ± 0.013; ΔHobs (BRD9 [1]; ITC, 15 °C, reverse titration): –5.35 ± 0.09 kcal/mol; LE (ligand efficiency) (BRD9 [1]; LE = ΔG/N, N number of non-hydrogen atoms): 0.36

Structure (SMILES) | ΔTm at 10 µM (BRD9 [2]) | solubility (in words) [4] | ΔTm at 10 µM (BRD4(1)) | ΔTm at 10 µM (BRD2(1)) | ΔTm at 10 µM (PCAF) | ΔTm at 10 µM (CREBBP) | ΔTm at 10 µM (BRDT(2)) | ΔTm at 10 µM (PB1(5)) | ΔTm at 10 µM (BRD2(2)) | ΔTm at 10 µM (BRD3(1)) | ΔTm at 10 µM (BRD3(2)) | ΔTm at 10 µM (BRD4(2)) | ΔTm at 10 µM (BRDT(1)) | ΔTm at 10 µM (BAZ2B) | binding to the bromodomain panel in the ΔTm assay (in words) [3] | further results
CCCCOc1cc(Br)cc(-c2nc(N)nc3c2ncn3C)c1 [Compound 5b, 2-Amino-6-(3-bromo-5-butoxyphenyl)-9-methylpurine] | -0.56 °C |  | 0.633 °C | -0.153 °C | 0.9 °C | 1.3 °C | 1 °C | 0.5 °C | 0.163 °C | 0.227 °C | 0.5 °C | 0.373 °C | 0.45 °C | 0.217 °C | very weak or no binding | KD (BRD9 [1]; ITC, 50 mM HEPES pH 7.5, 150 mM NaCl, 15 °C, reverse titration, triplicate): no binding/weak
